# Experimental data reported in paper PMC8175350, “Drug repurposing screens identify chemical entities for the development of COVID-19 interventions” (Nature Communications, 2021).
# Read-outs that look alike come from different tables or passages of the source.
# Experiments:
# SARS-CoV-2 [1] = experiment: microbe, parasite or virus in culture; type: cell-based; conditions: for EC50: Severe acute respiratory syndrome coronavirus 2, Calu-3, detail block, read-out: Calu-3 CoV-2 EC50 GeoMean
# SARS-CoV-2 [2] = experiment: microbe, parasite or virus in culture; type: cell-based; conditions: for EC50: Severe acute respiratory syndrome coronavirus 2, HeLa-ACE2, detail block, read-out: HeLa-ACE2 TOA CoV-2 EC50 GeoMean; for Emax: Severe acute respiratory syndrome coronavirus 2, HeLa-ACE2, 10 h, curve plateau at infinite concentration, read-out: HeLa-ACE2 TOA CoV-2 Sinf Average
# [3] = Uninfected HeLa-ACE2 24 h live/dead cytotoxicity counter screen; type: cell-based, human; conditions: human, uninfected HeLa-ACE2 cells, detail block; read-out: HeLa-ACE2 uninfected cytotoxicity CC50 GeoMean
# HeLa-ACE2 cells [4] = experiment: as above; type: cell-based, human; conditions: curve plateau at infinite concentration
# HeLa-ACE2 cells [5] = experiment: cells; conditions: Homo sapiens; for EC50: HeLa-ACE2, read-out: HeLa-ACE2 cell count EC50 GeoMean, detail block
# SARS-CoV-2 [6] = experiment: microbe, parasite or virus in culture; type: cell-based; conditions: for Emax: Severe acute respiratory syndrome coronavirus 2, HeLa-ACE2, 24 h, curve plateau at infinite concentration, read-out: HeLa-ACE2 CoV-2 Sinf Average; for EC50: Severe acute respiratory syndrome coronavirus 2, HeLa-ACE2, detail block, read-out: HeLa-ACE2 CoV-2 EC50 GeoMean
# [7] = HepG2 72 h CellTiter-Glo cytotoxicity; conditions: human, HepG2 cells
# HepG2 [8] = experiment: HepG2 72 h CellTiter-Glo cytotoxicity; conditions: 72 h
# HeLa-ACE2 cells [9] = experiment: cells; type: cell-based, human; conditions: Homo sapiens, HeLa-ACE2; read-out: HeLa-ACE2 TOA cell count EC50 GeoMean
# [10] = HEK293T 72 h CellTiter-Glo cytotoxicity; conditions: human, HEK293T cells
# HEK293T [11] = experiment: HEK293T 72 h CellTiter-Glo cytotoxicity; conditions: 72 h
# Calu-3 cells [12] = experiment: cells; conditions: Homo sapiens; for EC50: Calu-3, read-out: Calu-3 cell count EC50 GeoMean, detail block
# in vitro = conditions: human, Calu-3 uninfected cytotoxicity CC50 GeoMean
# Calu-3 cells [13] = experiment: Uninfected Calu-3 48 h Cell-Titer Glo cytotoxicity counter screen; conditions: curve plateau at infinite concentration
# Calu-3 cells [14] = test system: Calu-3 cells
# HepG2 [15] = conditions: human
# HEK293T [16] = conditions: human
# [17] = Uninfected Calu-3 48 h Cell-Titer Glo cytotoxicity counter screen; conditions: human, uninfected Calu-3 cells, Calu-3 uninfected cytotoxicity CC50 GeoMean, detail block
# [18] = TOA EC50 / HeLa-ACE2 SARS-CoV-2 EC50
SMILES,EC50 (SARS-CoV-2 [1]) [µM],EC50 (SARS-CoV-2 [2]) [µM],CC50 at 24 h [3] [µM],HeLa-ACE2 uninfected cytotoxicity Sinf Average (HeLa-ACE2 cells [4]) [%],EC50 (HeLa-ACE2 cells [5]) [µM],Emax (SARS-CoV-2 [6]) [%],EC50 (SARS-CoV-2 [6]) [nM],CC50 at 72 h [7] [µM],HepG2 72-hour cytotoxicity Sinf Average (HepG2 [8]) [%],EC50 (HeLa-ACE2 cells [9]) [µM],CC50 at 72 h [10] [µM],HEK293T 72-hour cytotoxicty Sinf Average (HEK293T [11]) [%],EC50 (Calu-3 cells [12]) [µM],Emax (SARS-CoV-2 [2]) [%],TOA:HeLa-ACE2 EC50 Ratio (SARS-CoV-2 [2]; [18]),HeLa-ACE2 SI (SARS-CoV-2 [6]),Calu-3 uninfected cytotoxicity Sinf Average (Calu-3 cells [13]) [%],further results
CCN(CC)Cc1cc(Nc2ccnc3cc(Cl)ccc23)ccc1O [Amodiaquine],> 9.85,> 9.59,> 39.8,-89,> 0.865,102,1190,3.76,-80,> 9.59,10,-87,> 9.85,–,–,–,–,"TOA:HeLa-ACE2 EC50 Ratio (SARS-CoV-2 [2]): 8.060; Emax (HeLa-ACE2 cells [5]; HeLa-ACE2, 24 h, read-out: HeLa-ACE2 cell count Sinf Average): -26%; HeLa-ACE2 SI (SARS-CoV-2 [6]; selectivity index, uninfected HeLa-ACE2 CC50 / SARS-CoV-2 EC50): > 33.48"
CN1[C@@H]2CC[C@H]1C[C@@H](N1Cc3ccc4ccccc4c3C1=O)C2 [CR-3124],> 9.98,> 9.59,> 39.8,-100,> 9.59,100,5970,–,-100,> 9.59,–,-100,> 9.98,100,1.607,> 6.67,-100,CC50 (in vitro; detail block): > 29.9 µM
COc1ccc2cc1Oc1ccc(cc1)C[C@H]1c3c(cc4c(c3Oc3cc5c(cc3OC)CCN(C)[C@@H]5C2)OCO4)CCN1C [Cepharanthine],> 9.98,> 9.5,> 25.4,-100,> 9.59,98,988,–,–,> 9.59,–,–,> 9.98,100,9.613,> 25.76,–,"Calu-3 SI (SARS-CoV-2 [1]): 2.79; CC50 at 48 h (in vitro): > 27.8 µM; uninfected Calu-3 CC50 (Calu-3 cells [14]): > 27.816 ×÷ 1.096 (n=3) μM; Calu-3 uninfected cytotoxicity Sinf Average (Calu-3 cells [14]; human, 48 h): -100%; HepG2 72-hour cytotoxicity Sinf Average (HepG2 [15]; 72 h): -100%; HEK293T 72-hour cytotoxicty Sinf Average (HEK293T [16]; 72 h): -103%"
"CCN(CC)CCCC(C)Nc1ccnc2cc(Cl)ccc12 (centres unmarked) [Chloroquine, DualTPharma, Chloroquine]",> 9.85,> 9.59,> 39.8,-100,> 9.59,107,900,–,–,> 9.59,–,–,> 9.85,–,–,–,–,HepG2 72-hour cytotoxicity Sinf Average (HepG2 [15]): -100%; HEK293T 72-hour cytotoxicty Sinf Average (HEK293T [16]): -100%
CCCCCCOC(=O)NC(=N)c1ccc(NCc2nc3cc(C(=O)N(CCC(=O)OCC)c4ccccn4)ccc3n2C)cc1 [Dabigatran etexilate mesilate],> 9.98,> 9.51,> 26.5,-97,> 9.59,100,4080,13.1,-96,> 9.59,8.53,-101,> 9.98,100,2.329,> 6.50,-100,"CC50 at 48 h [17]: > 29.9 µM; Emax (Calu-3 cells [12]; Calu-3, 48 h, read-out: Calu-3 cell count Sinf Average): 100%"
